Measured values: US20240308996A1, “PYRIDOPYRIDINES AND DERIVATIVES THEREOF AS SELECTIVE KINASE INHIBITORS” (University of Sharjah, priority 2023, published 2024)

Tests used:
Type in all cases: cell-based
NCI-H226 = test: NCI-60 cell line panel: NCI-H226; conditions: Non-Small Cell Lung Cancer
Experimental: (§1) It was carried out at the NCI, Bethesda, MD, USA, utilizing their standard protocol.

HepG2 = test: MTT assay, HepG2 HCC cell line; conditions: Homo sapiens, 48 h, mean of triplicate assays ± SEM
Experimental: (§2) Two HCC cell lines (Hep3B and HepG2) were used for screening the antiproliferative activity of the synthesized compounds. The cell lines were obtained from the European Collection of Cell Cultures (ECACC, UK) and maintained in Dulbecco's Modified Eagle Medium (DMEM: Sigma-Aldrich) supplemented with 10% fetal bovine serum (FBS) and 1% penicillin/streptomycin and incubated at 37° C. in a 5% CO2 air atmosphere. In addition, WI-38 normal cell line was used to investigate the safety of these compounds.
(§3) MTT assay was conducted to calculate the IC50 of the compounds following the reported procedure . Briefly, the cells were seeded in 96-well tissue culture plates with a density of 5×10^4 cells/well and incubated overnight at 37° C. in a 5% CO2 air atmosphere. […] DMSO was used as a negative control. After 48 h, the media were aspirated, and replaced with media containing 0.5 mg/mL of MTT tetrazolium dye (Sigma-Aldrich) for 2 h at 37° C. Finally, the media were removed and 200 μL of DMSO was added to solubilize the formazan crystals. Absorbance was then measured at 570 nm using Varioskan Flash multimode plate reader (Thermo Scientific, Massachusetts, USA).

HL-60(TB) = test: NCI-60 cell line panel: HL-60(TB); parameters: TGI: unit not given here; conditions: Leukemia
Experimental: as §1

HCT-15 = test: NCI-60 cell line panel: HCT-15; conditions: Colon Cancer
Experimental: as §1

SK-MEL-5 = test: NCI-60 cell line panel: SK-MEL-5; conditions: Melanoma
Experimental: as §1

HOP-92 = test: NCI-60 cell line panel: HOP-92; parameters: TGI: unit not given here; conditions: Non-Small Cell Lung Cancer
Experimental: as §1

KM12 = test: NCI-60 cell line panel: KM12; conditions: Colon Cancer
Experimental: as §1

CCRF-CEM = test: NCI-60 cell line panel: CCRF-CEM; conditions: Leukemia
Experimental: as §1

NCI-H322M = test: NCI-60 cell line panel: NCI-H322M; conditions: Non-Small Cell Lung Cancer
Experimental: as §1

A549/ATCC = test: NCI-60 cell line panel: A549/ATCC; conditions: Non-Small Cell Lung Cancer
Experimental: as §1

OVCAR-8 = test: NCI-60 cell line panel: OVCAR-8; conditions: Ovarian Cancer
Experimental: as §1

MOLT-4 = test: NCI-60 cell line panel: MOLT-4; parameters: TGI: unit not given here; conditions: Leukemia
Experimental: as §1

RXF 393 = test: NCI-60 cell line panel: RXF 393; conditions: Renal Cancer
Experimental: as §1

SK-OV-3 = test: NCI-60 cell line panel: SK-OV-3; conditions: Ovarian Cancer
Experimental: as §1

A498 = test: NCI-60 cell line panel: A498; conditions: Renal Cancer
Experimental: as §1

MDA-MB-435 = test: NCI-60 cell line panel: MDA-MB-435; parameters: TGI: unit not given here; conditions: Melanoma
Experimental: as §1

NCI-H23 = test: NCI-60 cell line panel: NCI-H23; conditions: Non-Small Cell Lung Cancer
Experimental: as §1

M14 = test: NCI-60 cell line panel: M14; conditions: Melanoma
Experimental: as §1

SF-268 = test: NCI-60 cell line panel: SF-268; conditions: CNS Cancer
Experimental: as §1

Hep3B = test: MTT assay, Hep3B HCC cell line; conditions: Homo sapiens, 48 h, mean of triplicate assays ± SEM
Experimental: as §2, §3

LOX IMVI = test: NCI-60 cell line panel: LOX IMVI; conditions: Melanoma
Experimental: as §1

OVCAR-5 = test: NCI-60 cell line panel: OVCAR-5; conditions: Ovarian Cancer
Experimental: as §1

[1] = tested on: hepatocellular carcinoma cell lines; test: Screening against HCC cell lines
DU-145 = test: NCI-60 cell line panel: DU-145; conditions: Prostate Cancer
Experimental: as §1

SR = test: NCI-60 cell line panel: SR; conditions: Leukemia
Experimental: as §1

RPMI-8226 = test: NCI-60 cell line panel: RPMI-8226; conditions: Leukemia
Experimental: as §1

PC-3 = test: NCI-60 cell line panel: PC-3; conditions: Prostate Cancer
Experimental: as §1

MDA-MB-468 = test: NCI-60 cell line panel: MDA-MB-468; conditions: Breast Cancer
Experimental: as §1

Work on `CCN1CCN(c2ccc(NC(=O)Nc3ccc(-c4cc(C(=O)NC(C)C)c5ncccc5n4)cc3)cc2C(F)(F)F)CC1` [Compound 13f, 2-(4-(3-(4-(4-Ethylpiperazin-1-yl)-3-(trifluoromethyl)phenyl)ureido)phenyl)-N-isopropyl-1,5-naphthyridine-4-carboxamide] yielded an IC50 (NCI-H226; Homo sapiens) of 5020 nM, a TGI (NCI-H226; total growth inhibition) of 12500 nM and an IC50 (HepG2) of 460 ± 60 nM. It also gave an IC50 (HL-60(TB); Homo sapiens) of 1070 nM, a TGI (HL-60(TB); total growth inhibition) of 5.89 and a TGI (HCT-15; total growth inhibition) of 1350 nM. The IC50 (HCT-15; Homo sapiens) was 670 nM, the IC50 (SK-MEL-5; Homo sapiens) was 1410 nM and the TGI (SK-MEL-5; total growth inhibition) was 5280 nM. It also gave an IC50 (HOP-92; Homo sapiens) of 3140 nM, a TGI (HOP-92; total growth inhibition) of 8.29 and a TGI (KM12; total growth inhibition) of 2910 nM. The IC50 (KM12; Homo sapiens) was 1010 nM, the IC50 (CCRF-CEM; Homo sapiens) was 1010 nM and the TGI (CCRF-CEM; total growth inhibition) was 3100 nM. It also gave an IC50 (NCI-H322M; Homo sapiens) of 1850 nM, a TGI (NCI-H322M; total growth inhibition) of 7240 nM and an IC50 (A549/ATCC; Homo sapiens) of 1140 nM. It also gave a TGI (A549/ATCC; total growth inhibition) of 5770 nM, an IC50 (OVCAR-8; Homo sapiens) of 5690 nM and a TGI (OVCAR-8; total growth inhibition, in µM (unit assumed)) of 17.5. It also gave an IC50 (MOLT-4; Homo sapiens) of 1110 nM, a TGI (MOLT-4; total growth inhibition) of 30.60 and an IC50 (RXF 393; Homo sapiens) of 650 nM. It also gave a TGI (RXF 393; total growth inhibition) of 1730 nM, an IC50 (SK-OV-3; Homo sapiens) of 5330 nM and a TGI (SK-OV-3; total growth inhibition) of 1080 nM. The IC50 (A498; Homo sapiens) was 5110 nM, the TGI (A498; total growth inhibition) was 9700 nM and the IC50 (MDA-MB-435; Homo sapiens) was 650 nM. It also gave a TGI (MDA-MB-435; total growth inhibition) of 1.31, an IC50 (NCI-H23; Homo sapiens) of 2050 nM and a TGI (NCI-H23; total growth inhibition) of 7270 nM. It also gave an IC50 (M14; Homo sapiens) of 720 nM, a TGI (M14; total growth inhibition) of 1900 nM and a TGI (SF-268; total growth inhibition) of 10900 nM. The IC50 (SF-268; Homo sapiens) was 3560 nM, the IC50 (Hep3B) was 1090 ± 140 nM and the IC50 (LOX IMVI; Homo sapiens) was 560 nM. For the same compound, the TGI (LOX IMVI; total growth inhibition) was 1050 nM, the IC50 (OVCAR-5; Homo sapiens) was 1600 nM and the TGI (OVCAR-5; total growth inhibition) was 6090 nM. For the same compound, the “inhibition activity against hepatocellular carcinoma cell lines compared with sorafenib” value [1] was “higher inhibition activity than sorafenib”, the IC50 (DU-145; Homo sapiens) was 750 nM and the TGI (DU-145; total growth inhibition) was 1580 nM. The IC50 (SR; Homo sapiens) was 1050 nM, the TGI (SR; total growth inhibition) was 12100 nM and the IC50 (RPMI-8226; Homo sapiens) was 1040 nM. For the same compound, the TGI (RPMI-8226; total growth inhibition) was > 34500 nM, the IC50 (PC-3; Homo sapiens) was 760 nM and the TGI (PC-3; total growth inhibition) was 2100 nM. The TGI (MDA-MB-468; total growth inhibition) was 1850 nM and the IC50 (MDA-MB-468; Homo sapiens) was 770 nM.
